According to PubChem BioAssay AID248 (DTP/NCI, 2004):
Several values for one entry are separate records, joined by “and”; a condition that tells them apart may be missing. Identical values can stand only once. Toxic doses and inconclusive results are not listed. Rule as the data show it: active = T/C of 150% or more; inactive = T/C below 125%. Peptide text beside a SMILES is read from it.

Tested on: L1210 leukemia ip in BDF1 mice, survival T/C
Test: NCI In Vivo Anticancer Drug Screen. Data for tumor model L1210 Leukemia (intraperitoneal) in B6D2F1 (BDF1) mice
Settings: endpoint: mean survival time, higher = longer survival
Summary of the method: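 Read-out is survival time, reported as the treated-group measurement over the vehicle-control measurement.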

[1] = dose: 100.0 mg/kg/injection, schedule: Q04DX003 (ip), vehicle: saline
[2] = dose: 200.0 mg/kg/injection, schedule: Q04DX003 (ip), vehicle: saline
[3] = dose: 400.0 mg/kg/injection, schedule: Q04DX003 (ip), vehicle: saline
[4] = dose: 100.0 mg/kg/injection, schedule: Q01DX009 (ip), vehicle: Klucel (hydroxypropylcellulose) (HPC)
[5] = dose: 100.0 mg/kg/injection, schedule: Q04DX003 (ip), vehicle: Klucel (hydroxypropylcellulose) (HPC)
[6] = dose: 200.0 mg/kg/injection, schedule: Q01DX009 (ip), vehicle: Klucel (hydroxypropylcellulose) (HPC)
[7] = dose: 200.0 mg/kg/injection, schedule: Q04DX003 (ip), vehicle: Klucel (hydroxypropylcellulose) (HPC)
[8] = dose: 400.0 mg/kg/injection, schedule: Q01DX009 (ip), vehicle: Klucel (hydroxypropylcellulose) (HPC)
[9] = dose: 400.0 mg/kg/injection, schedule: Q04DX003 (ip), vehicle: Klucel (hydroxypropylcellulose) (HPC)
[10] = dose: 100.0 mg/kg/injection, schedule: Q01DX009 (ip), vehicle: saline
[11] = dose: 200.0 mg/kg/injection, schedule: Q01DX009 (ip), vehicle: saline
[12] = dose: 400.0 mg/kg/injection, schedule: Q01DX009 (ip), vehicle: saline
[13] = dose: 100.0 mg/kg/injection, schedule: Q01DX001 (ip), vehicle: saline
[14] = dose: 50.0 mg/kg/injection, schedule: Q01DX009 (ip), vehicle: saline
[15] = dose: 100.0 mg/kg/injection, schedule: Q01DX001 (ip), vehicle: Klucel (hydroxypropylcellulose) (HPC)
[16] = dose: 75.0 mg/kg/injection, schedule: Q01DX001 (ip), vehicle: saline
[17] = dose: 150.0 mg/kg/injection, schedule: Q01DX001 (ip), vehicle: saline
[18] = dose: 300.0 mg/kg/injection, schedule: Q01DX001 (ip), vehicle: saline

Measured: T/C

CSCCC(NC(=O)C(N)C(C)C)C(=O)O (stereo not drawn) (H-Val-Met-OH; configuration not given here)
inactive: [1] 100 % of control | [2] 108 % of control | [3] 103 % of control

S=C1SCN(C2CCCCC2)CN1C1CCCCC1
inactive: [4] 94 % of control | [5] 91 % of control | [6] 95 % of control | [7] 100 % of control | [8] 94 % of control | [9] 100 % of control

NC(=O)CC[n+]1cccc(C(=O)O)c1
inactive: [10] 93 % of control | [1] 94 % of control | [11] 88 % of control | [2] 93 % of control | [12] 92 % of control | [3] 94 % of control

O=C(NC(=S)Nc1cccc2ccccc12)c1ccccc1F
inactive: dose: 100.0 mg/kg/injection, schedule: Q04DX002 (ip), vehicle: saline 102 % of control | dose: 200.0 mg/kg/injection, schedule: Q04DX002 (ip), vehicle: saline 88 % of control | dose: 400.0 mg/kg/injection, schedule: Q04DX002 (ip), vehicle: saline 102 % of control

C[C@@H]1CC[C@@]2(OC1)O[C@H]1C[C@H]3[C@@H]4CC=C5C(C)(C)C(=O)C(O)=C[C@]5(C)[C@H]4CC[C@]3(C)[C@H]1[C@@H]2C
inactive: dose: 100.0 mg/kg/injection, schedule: Q04DX003 (sc), vehicle: steriod suspending solution 98 % of control | dose: 200.0 mg/kg/injection, schedule: Q04DX003 (sc), vehicle: steriod suspending solution 110 % of control | dose: 400.0 mg/kg/injection, schedule: Q04DX003 (sc), vehicle: steriod suspending solution 98 % of control

O=C(O)CCl
inactive: dose: 50.0 mg/kg/injection, schedule: Q01DX001 (ip), vehicle: saline 98 % of control | [13] 104 % of control

C[Si](C)(C)O[Si](C)(C)c1ccccc1
inactive: [14] 102 % of control | [10] 88 % of control | [1] 103 % of control | [11] 99 % of control | [2] 109 % of control | [12] 96 % of control | [3] 95 % of control

CC(=O)Nc1nnc(Sc2ccc([N+](=O)[O-])cc2[N+](=O)[O-])s1
inactive: [4] 95 % of control | [6] 95 % of control | [8] 100 % of control

Cc1cc(C)nc(NC(=O)Nc2cccc(C(F)(F)F)c2)c1
inactive: [15] 102 % of control | [4] 104 % of control and 113 % of control | dose: 100.0 mg/kg/injection, schedule: Q04DX002 (ip), vehicle: Klucel (hydroxypropylcellulose) (HPC) 101 % of control and 117 % of control | [5] 94 % of control | dose: 200.0 mg/kg/injection, schedule: Q01DX001 (ip), vehicle: Klucel (hydroxypropylcellulose) (HPC) 94 % of control | [6] 93 % of control and 109 % of control | dose: 200.0 mg/kg/injection, schedule: Q04DX002 (ip), vehicle: Klucel (hydroxypropylcellulose) (HPC) 96 % of control and 98 % of control | [7] 111 % of control | dose: 400.0 mg/kg/injection, schedule: Q01DX001 (ip), vehicle: Klucel (hydroxypropylcellulose) (HPC) 98 % of control | [8] 104 % of control and 107 % of control | dose: 400.0 mg/kg/injection, schedule: Q04DX002 (ip), vehicle: Klucel (hydroxypropylcellulose) (HPC) 98 % of control and 99 % of control | [9] 99 % of control

Nc1cccc(CSc2nc3nc[nH]c3c(=O)[nH]2)c1
inactive: dose: 25.0 mg/kg/injection, schedule: Q01DX001 (ip), vehicle: Klucel (hydroxypropylcellulose) (HPC) 102 % of control | dose: 50.0 mg/kg/injection, schedule: Q01DX001 (ip), vehicle: Klucel (hydroxypropylcellulose) (HPC) 100 % of control | [15] 102 % of control

Cc1ccc(S(=O)(=O)Oc2ccc(-c3ccc(Br)cc3)cc2)cc1
inactive: [16] 97 % of control | [17] 105 % of control | [18] 105 % of control

O=S(=O)(O)c1cccc2cccc(Cl)c12
inactive: dose: 100.0 mg/kg/injection, schedule: Q01DX009 (ip), vehicle: saline with Tween-80 99 % of control | [10] 95 % of control | [1] 109 % of control | dose: 200.0 mg/kg/injection, schedule: Q01DX009 (ip), vehicle: saline with Tween-80 94 % of control | [11] 97 % of control | [2] 105 % of control | dose: 400.0 mg/kg/injection, schedule: Q01DX009 (ip), vehicle: saline with Tween-80 96 % of control | [12] 103 % of control | [3] 115 % of control

CC(=O)OCC12CCC(O1)C1C(=O)OC(=O)C12 (centres undefined)
inactive: [4] 91 % of control | [5] 97 % of control | [6] 88 % of control | [7] 98 % of control | [8] 93 % of control | [9] 90 % of control

Cc1ccc(NC(=O)CS)cc1
inactive: dose: 100.0 mg/kg/injection, schedule: Q04DX003 (ip), vehicle: saline with Tween-80 100 % of control | dose: 200.0 mg/kg/injection, schedule: Q04DX003 (ip), vehicle: saline with Tween-80 93 % of control

CC(=O)Nc1nc(Cl)c2ncn(C3OC(COC(=O)c4ccccc4)C(OC(=O)c4ccccc4)C3OC(=O)c3ccccc3)c2n1 (centres undefined)
inactive: [16] 95 % of control | [13] 103 % of control | [17] 98 % of control | dose: 200.0 mg/kg/injection, schedule: Q01DX001 (ip), vehicle: saline 101 % of control | [18] 95 % of control | dose: 400.0 mg/kg/injection, schedule: Q01DX001 (ip), vehicle: saline 95 % of control

C[CH2][Pb]([Br])([CH2]C)[CH2]C
inactive: dose: 6.25 mg/kg/injection, schedule: Q01DX009 (ip), vehicle: saline with Tween-80 103 % of control | dose: 12.5 mg/kg/injection, schedule: Q01DX009 (ip), vehicle: saline with Tween-80 103 % of control | dose: 25.0 mg/kg/injection, schedule: Q01DX009 (ip), vehicle: saline with Tween-80 94 % of control and 103 % of control | dose: 25.0 mg/kg/injection, schedule: Q04DX002 (ip), vehicle: saline with Tween-80 93 % of control | dose: 50.0 mg/kg/injection, schedule: Q04DX002 (ip), vehicle: saline with Tween-80 99 % of control | dose: 100.0 mg/kg/injection, schedule: Q04DX002 (ip), vehicle: saline with Tween-80 96 % of control

NC(=O)NC(=O)c1ccccn1
inactive: [16] 106 % of control | [17] 97 % of control | [18] 100 % of control

Nc1nc2nc3c(nc2c(=O)[nH]1)CN(C1CCCCC1)C3=O
inactive: dose: 75.0 mg/kg/injection, schedule: Q01DX001 (ip), vehicle: carboxymethylcellulose (CMC) 96 % of control | dose: 150.0 mg/kg/injection, schedule: Q01DX001 (ip), vehicle: carboxymethylcellulose (CMC) 94 % of control

O=[N+]([O-])c1cc(O)ccc1Cl
inactive: [14] 93 % of control | [10] 102 % of control | dose: 100.0 mg/kg/injection, schedule: Q04DX003 (ip), vehicle: alcohol 104 % of control | [11] 87 % of control

CCN(CC)CCOC(=O)c1cccnc1
inactive: dose: 25.0 mg/kg/injection, schedule: Q01DX009 (ip), vehicle: saline 96 % of control | dose: 25.0 mg/kg/injection, schedule: Q04DX003 (ip), vehicle: saline 103 % of control | [14] 94 % of control | dose: 50.0 mg/kg/injection, schedule: Q04DX003 (ip), vehicle: saline 97 % of control | [10] 100 % of control | [1] 97 % of control | [11] 86 % of control | [2] 95 % of control | [12] 107 % of control | [3] 101 % of control
